One substance from US9377472B2, “Biological complex specific for Alzheimer's disease detection in vitro and use thereof” (Amoneta Diagnostics, priority 2012, dated 2016) can be followed below.

In experiment [1] the test system is PC12 cells. Kind of experiment: Immunocytochemistry of Aβ oligomers bound to PC12 cells (A11 antibody). It counts as cell-based, rat. The procedure:
In an attempt to characterise the tertiary form of the peptide bound to the cells and responsible for the priming effect that was observed immunocytochemical experiments were performed: PC12 cells were plated on poly-L-ornithine coated coverslips and maintained for 5 days in culture media supplemented with NGF to induce neuronal differentiation at 37° C. According to experimental conditions, PC 12 cells have undergone a chronic treatment and/or an acute treatment (see Example 1). Cells were subsequently rinsed to eliminate unbound Aβ and fixed with 4% paraformaldehyde in phosphate buffered saline (PBS) for 10 minutes. PC12 cells were then incubated in a blocking solution (3% Bovine Serum Albumin in PBS) for 1 hour at room temperature. A rabbit polyclonal antibody A11 (Millipore) directed against Aβ oligomers diluted 1:1500 in blocking solution was applied to the cells overnight at 4° C. Cells were washed three times for 10 minutes with the blocking solution and incubated with the appropriate secondary Dylight 549-conjugated antibody goat […], (Jackson Immunoresearch, diluted 1:2000) for 2 hours at room temperature, washed 3×10 minutes in PBS and mounted in Mowiol.
Panel G of FIG. 2(g) represents the quantification of the fluorescence intensity in the different experimental conditions in 2(a) to 2(f).

The subject of experiment [2] is PC12 cells. The experiment in a line: Calcium imaging (Fura-2) of differentiated PC12 cells after acute and/or chronic Aβ peptide application. It counts as cell-based, rat. Particulars: preincubated overnight at low concentration (10 nM), then acute 1 μM Aβ1-42.
Procedure: PC12 rat pheochromocytoma cells were cultured in RPMI 1640 medium (InVitrogen) supplemented with 5% heat-inactivated horse serum, 10% foetal bovine serum (Dominique Dutcher) and antibiotics (penicillin 100 U/ml, streptomycin 100 U/ml, Sigma) at 37° C. in 5% CO2. PC12 cells were reseeded once a week. Before use, cells were platted in 35 mm glass-bottom culture dishes coated with type I collagen and Poly-L-ornithine; NGF (50 μg/1, Sigma) was added in the culture medium to induce their neuronal differentiation. Cells were used after 5 days in vitro, when they express a complete neuronal phenotype (neurite like extensions, voltage dependent ionic channels, neurotransmitters receptors and neurotransmitter secretion capacities).
PC12 cells platted on glass-bottom culture dishes were loaded with Fura-2 AM (1 μM, InVitrogen) and pluronic acid (InVitrogen) in a Hepes buffer for 20 min at 37° C. […] Fluorescence was excited by a xenon lamp equipped with two alternating filters allowing a fluorescence excitation at 350 nm for Ca^2+-bound Fura-2 and at 380 nm for Ca^2+-unbound Fura-2. Image pairs were recorded during 20 minutes every 5 seconds using an EM-CCD camera (Hamamatsu Photonics). Emitted fluorescence intensities (510 nm) were measured from regions of interest centered on individual cells. Normalized ratios were calculated. […]

Turning to “Aβ1-42: synthetic beta-amyloid peptide 1-42 (Bachem or Anaspec), SEQ ID NO: 4”, the “fluorescent signal of bound Aβ oligomers after acute application only” value with PC12 cells [1] (acute application of 1 μM, no preincubation) is “No significant fluorescent signal”. Besides, the “fluorescent signal of bound Aβ oligomers, chronic preincubation associated to acute stimulation” value with PC12 cells [1] (chronic preincubation plus acute stimulation) was “a clear signal was observed”. Also, in the experiment on PC12 cells [1] (preincubation with 10 or 50 nM, no acute application), the “fluorescent signal of bound Aβ oligomers after preincubation only” value is on record as “No significant fluorescent signal”. In addition, the “priming: [Ca^2+]i response to subsequent acute 1 μM Aβ1-42 after overnight preincubation with the peptide” value in the experiment with PC12 cells [2] is “amplified”.
